Where two headings read alike, the source gives them in different places. Ends that are not written are not given here.
What was measured:
[1] = target: T1, bovine fibrinogen (Bos taurus, UniProt P02672+P02676+P12799); assay: Isothermal titration calorimetry (ITC) binding to fibrinogen; settings: ITC in HBS; peptides 5.7-5.9 mM titrated into 0.175 mM fibrinogen; PEG-pep1 1.7 mM or PEG-pep2 5.2 mM into 0.012 mM fibrinogen; n = 3 independent samples
T1 sequence (P12799 25-444): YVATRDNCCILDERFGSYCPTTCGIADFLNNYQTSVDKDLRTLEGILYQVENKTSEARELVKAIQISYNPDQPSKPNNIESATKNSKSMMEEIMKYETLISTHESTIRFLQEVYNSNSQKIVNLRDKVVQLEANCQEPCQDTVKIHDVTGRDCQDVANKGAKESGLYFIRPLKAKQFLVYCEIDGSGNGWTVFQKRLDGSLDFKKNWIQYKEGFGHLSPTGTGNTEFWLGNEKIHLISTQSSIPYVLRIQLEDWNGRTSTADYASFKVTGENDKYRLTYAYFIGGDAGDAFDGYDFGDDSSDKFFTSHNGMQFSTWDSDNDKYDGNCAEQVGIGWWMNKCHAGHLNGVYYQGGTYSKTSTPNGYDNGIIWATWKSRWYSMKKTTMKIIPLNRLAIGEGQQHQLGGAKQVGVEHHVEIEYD
T1 sequence (P02676 1-468): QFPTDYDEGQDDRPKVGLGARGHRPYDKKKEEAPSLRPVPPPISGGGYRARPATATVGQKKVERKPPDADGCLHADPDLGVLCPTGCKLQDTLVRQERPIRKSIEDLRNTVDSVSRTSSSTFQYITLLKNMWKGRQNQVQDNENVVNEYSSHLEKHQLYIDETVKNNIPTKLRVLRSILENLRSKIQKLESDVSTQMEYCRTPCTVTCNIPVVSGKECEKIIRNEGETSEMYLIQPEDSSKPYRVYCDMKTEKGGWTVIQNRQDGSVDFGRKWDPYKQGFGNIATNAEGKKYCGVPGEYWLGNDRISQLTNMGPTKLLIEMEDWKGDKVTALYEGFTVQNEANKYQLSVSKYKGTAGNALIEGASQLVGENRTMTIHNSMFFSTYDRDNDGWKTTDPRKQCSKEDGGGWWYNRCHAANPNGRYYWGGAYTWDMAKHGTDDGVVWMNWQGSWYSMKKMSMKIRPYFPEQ
T1 sequence (P02672 20-615 partner): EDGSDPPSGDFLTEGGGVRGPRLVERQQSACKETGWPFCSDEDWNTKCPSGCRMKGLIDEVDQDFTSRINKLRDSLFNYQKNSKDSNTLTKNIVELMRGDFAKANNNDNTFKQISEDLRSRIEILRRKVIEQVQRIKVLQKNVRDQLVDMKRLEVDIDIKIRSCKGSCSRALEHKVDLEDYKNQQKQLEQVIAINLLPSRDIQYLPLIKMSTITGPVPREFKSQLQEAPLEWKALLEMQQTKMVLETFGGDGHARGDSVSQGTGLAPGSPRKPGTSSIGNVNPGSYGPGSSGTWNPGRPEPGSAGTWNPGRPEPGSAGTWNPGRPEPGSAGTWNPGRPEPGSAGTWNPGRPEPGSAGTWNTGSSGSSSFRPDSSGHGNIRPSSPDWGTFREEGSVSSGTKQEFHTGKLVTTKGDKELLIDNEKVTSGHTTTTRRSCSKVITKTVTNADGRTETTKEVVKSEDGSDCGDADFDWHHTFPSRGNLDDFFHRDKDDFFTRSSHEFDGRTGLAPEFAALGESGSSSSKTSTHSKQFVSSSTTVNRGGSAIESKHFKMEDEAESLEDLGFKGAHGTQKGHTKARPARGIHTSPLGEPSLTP
Experimental: (§1) Two techniques were used to confirm that PEG-peptides retained the ability to bind to fibrinogen (Fig. 1 and Table I, right): Fluorescence Anisotropy (FA) and Isothermal Titration Calorimetry (ITC). In FA measurements [Fig. 1(a)], the dissociation constant (Kd) was determined via saturation experiments for the non-conjugated peptides, and via competition experiments for the PEG-peptides. In the first case, saturation was achieved by adding increasing amounts of fibrinogen to a given amount of fluorescein-labelled peptides. In competition experiments, fibrinogen was pre-complexed with fluorescein-labelled peptides; these low molecular weight fluorophores were displaced upon addition of non-labelled conjugates, with a corresponding decrease in the polarization of the emitted light (smaller tumbling time).
The sample cell for this study can contain up to 270 μl of liquid. Fibrinogen/peptide samples were prepared adding 2 μl aliquots of peptide solution (5.91, 5.92, and 5.73 mM for Pep1, Pep2, and Pep3, respectively) under continuous stirring to 200 μl of 0.175 mM of bovine fibrinogen solution. Fibrinogen/PEG-peptide complexes were prepared adding 2 μl of 1.7 mM of PEG-pep1 or 5.2 mM of PEG-pep2 to 200 μl of 0.012 mM of bovine fibrinogen solution. Note that fibrinogen was prepared as follow: 60 mg of fibrinogen were dissolved in 1 mL HBS for 2 h at 37 °C and then dialyzed (Float-A-Lyzer G2 MWCO: 0.5–1 kDa, Spectrum, Inc.) against HBS for 24 h.

[2] = target: T2, fibrinogen (Bos taurus, UniProt P02672+P02676+P12799); assay: Fluorescence anisotropy (FA) saturation experiments with fluorescein-labelled peptides; type: binding; settings: 5IAF-labelled peptide 25-30 μM, fibrinogen 50 nM-103 μM, HBS, 1 h room temperature; Hill model; n = 3
T2 sequence (P12799 25-444): T1 sequence (P12799 25-444)
T2 sequence (P02676 1-468): T1 sequence (P02676 1-468)
T2 sequence (P02672 20-615 partner): T1 sequence (P02672 20-615 partner)
Experimental: as §1
Equal volumes (100 μl) of a labelled peptide solution (5IAF-pep1, 5IAF-pep2, or 5IAF-pep3) in HEPES (4-(2-hydroxyethyl)-1-piperazineethanesulfonic acid)-buffered saline (HBS) and of a fibrinogen solution were mixed together by gentle pipetting into a 96-well plate to obtain final concentrations of fibrinogen ranging from 50 nM to 103 μM, and a constant peptide concentration, i.e., 26 μM for 5IAF-pep1, 25 μM for 5IAF-pep2, or 30 μM for 5IAF-pep3. […] All mixed reagents were incubated for 1 h at room temperature before recording fluorescence polarization values.

[3] = test system: fibrin clotting; settings: cited from earlier work
[4] = target: T2, fibrinogen; assay: Fluorescence anisotropy (FA) competition experiments (displacement of 5IAF-peptides from fibrinogen); type: binding; settings: 36 μM fibrinogen pre-complexed with 5IAF-pep1 (0.25 μM) or 5IAF-pep2 (0.8 μM), displaced by PEG-peptide, 1 h 37 °C, HBS; n = 3
Experimental: as §1
Fibrinogen/5IAF-pep1 or 5IAF-pep2 complexes were prepared as described in the saturation experiments using 50 μl initial volumes and keeping the fibrinogen concentration fixed. Solutions were pre-incubated for 1 h at room temperature before 50 μl of PEG-peptide 1 or 2 solutions in HBS was added into the wells to obtain a final volume of 150 μl per well. Final concentrations were 36 μM fibrinogen; 0.25 μM 5IAF-pep1 and 0.6 μM to 1.2 mM PEG-pep1; 0.8 μM 5IAF-pep2; and 0.2 μM to 5 mM PEG-pep2. Polarization values were measured after 1 h of incubation at 37 °C. […]

[5] = test system: adult Human Dermal Fibroblasts (HDFa); assay: Fibrin-in-fibrin HDFa migration assay (radial invasion); type: cell-based; settings: 220 KIU of aprotinin in the media
Experimental: This migration assay is based on a fibrin-in-fibrin assay: when a volume of HDFa-laden fibrinogen solution is injected into a gelling fibrinogen-based formulation, cells migrate from the clot into the surrounding matrix; the maximum distance covered in the unit time [Fig. 8(a) top and insert in the bottom graph] is a measure of the cell migration capacity. This model is particularly advantageous to assess the migration of cells separately from other phenomena; for example, if seeded homogeneously and/or moving as a coherent front, cells can rapidly remodel and contract the matrix,[41] and this can profoundly influence the characteristics of their migration too.[42]
Standard cell culture methods are reported in the supplementary material, Sec. 1.4SI. For the migration assays, adult Human Dermal Fibroblasts (HDFa) were gently suspended in 12.5 mg/ml fibrinogen (in HBS) at a final cell density of 3 × 10^7 cells/ml. […] The cell migration rate was measured by analyzing acquired images with ImageJ (v1.49p, http://rsb.info.nih.gov/ij): the migration area was approximated to a circle and the cell invasion was thus quantified as the variation of the initial diameter, as previously reported by Lutolf et al.[28] An average of nine time points per diameter were measured from day 0 to 8, returning the average migration rate (μm/day). […]

| Kd [1] [µM] | Kd [2] [µM] | Substance | other results |
| --- | --- | --- | --- |
| 351 ± 10 | 335 ± 6 | GHRPGCG [Pep2] |  |
|  |  | GPRP [glycine-proline-arginine-proline] | effect on fibrin clotting ([3]; 1:20 fibrinogen/peptide molar ratio): significantly reduce fibrin clotting; effect on fibrin clotting ([3]; above 1:100 fibrinogen/peptide molar ratio): completely prevent |
| 44 ± 9 | 40 ± 1 | GPRPGCG [Pep1] |  |
| 103 ± 5 |  | PEG-pep1: 2 kDa PEG vinyl sulfone conjugated to Pep1; rest of material PEG-ME (GPRPGCG; Cys6 thiol joined by thioether (Michael addition) to 2 kDa PEG vinyl sulfone; free N-terminus (A-knob mimic); about 20 mol% of the material is PEG-mercaptoethanol; The GC) | Kd [4]: 135 ± 8 µM |
|  |  | aprotinin | HDFa migration rate in presence vs absence of the inhibitor [5]: virtually identical migration rates |
